# Measured values as given in ChEMBL document CHEMBL1157998, “Koninginin G, a new metabolite from trichoderma aureoviride” (1999).
# Tested on: Triticum aestivum
# Assay: Growth inhibition of etiolated wheat coleoptiles at 1000 uM relative to control
# Format: functional
# Details: read-out: GI
row,SMILES,inhibition of growth at 1000 µM
1,CCCCCC[C@H](O)[C@@H]1CC[C@@H]2[C@H](O)CC[C@H](O)[C@@]2(O)O1 [KONINGININ G],56%
2,CCCCCc1cccc(=O)o1,100%
